Test results published in US6696461B2, “Tricyclic imidazopyridines” (Altana Pharma AG, priority 2000, dated 2004).

System: pentagastrin-stimulated acid secretion of the perfused rat stomach
Test: Secretion-inhibiting action on the perfused rat stomach (pentagastrin-stimulated acid secretion, i.v. administration in vivo)
Settings: anesthetized CD rat, dose 3 μmol/kg i.v.
Text: Testing of the Secretion-inhibiting Action on the Perfused Rat Stomach
In Table A which follows, the influence of the compounds according to the invention on the pentagastrin-stimulated acid secretion of the perfused rat stomach after intravenous administration in vivo is shown.
The abdomen of anesthetized rats (CD rat, female, 200-250 g; 1.5 g/kg i.m. urethane) was opened after tracheotomy by a median upper abdominal incision and a PVC catheter was fixed transorally in the esophagus and another via the pylorus such that the ends of the tube just projected into the gastric lumen. The catheter leading from the pylorus led outward into the right abdominal wall through a side opening.
After thorough rinsing (about 50-100 ml), warm (37° C.) physiological NaCl solution was continuously passed through the stomach (0.5 ml/min, pH 6.8-6.9; Braun-Unita 1). The pH (pH meter 632, glass electrode EA 147; φ=5 mm, Metrohm) and, by titration with a freshly prepared 0.01N NaOH solution to pH 7 (Dosimat 665 Metrohm), the secreted HCl were determined in the effluent in each case collected at an interval of 15 minutes.
The gastric secretion was stimulated by continuous infusion of […] (=1.65 ml/h) of i.v. pentagastrin (left femoral vein) about 30 min after the end of the operation (i.e. after determination of 2 preliminary fractions). […]

| Structure (SMILES) | Inhibition of acid secretion [%] |
| --- | --- |
| COCc1cn2c(C)c(C)nc2c2c1[C@H](OC)[C@H](O)[C@@H](c1ccccc1)N2 [Example 17, (7S,8R,9R)-8-Hydroxy-7-methoxy-6-methoxymethyl-2,3-dimethyl-9-phenyl-7,8,9,10-tetrahydroimidazo[1,2-h][1,7]naphthyridine] | 100 |

System: not given
Test: not given
Settings: not given

| melting point | Structure (SMILES) |
| --- | --- |
| 163 to 164 °C (dec.) | CCO[C@H]1c2c(COC)cn3c(C)c(C)nc3c2N[C@H](c2ccccc2)[C@H]1O [Example 22, (7S,8R,9R)-8-Hydroxy-7-ethoxy-6-methoxymethyl-2,3-dimethyl-9-phenyl-7,8,9,10-tetrahydroimidazo[1,2-h][1,7]naphthyridine] |
| 184 to 186 °C (dec.) | CCO[C@@H]1c2c(COC)cn3c(C)c(C)nc3c2N[C@H](c2ccccc2)[C@H]1O [Example 21, (7R,8R,9R)-8-Hydroxy-7-ethoxy-6-methoxymethyl-2,3-dimethyl-9-phenyl-7,8,9,10-tetrahydroimidazo[1,2-h][1,7]naphthyridine] |

Continued, compound first:

| Structure (SMILES) | melting point |
| --- | --- |
| COCCO[C@H]1c2c(COC)cn3c(C)c(C)nc3c2N[C@H](c2ccccc2)[C@H]1O [Example 20, (7S,8R,9R)-8-Hydroxy-7-(2-methoxyethoxy)-6-methoxymethyl-2,3-dimethyl-9-phenyl-7,8,9,10-tetrahydroimidazo[1,2-h][1,7]naphthyridine] | 158 to 160 °C (dec.) |
| COCc1cn2c(C)c(C)nc2c2c1[C@H](OC)[C@H](O)[C@@H](c1ccccc1)N2 [Example 17, (7S,8R,9R)-8-Hydroxy-7-methoxy-6-methoxymethyl-2,3-dimethyl-9-phenyl-7,8,9,10-tetrahydroimidazo[1,2-h][1,7]naphthyridine] | 126 to 129 °C (dec.) |
| COCc1cn2c(C)c(C)nc2c2c1[C@H](O)[C@H](O)[C@@H](c1ccccc1)N2 [Example 15, (7S,8R,9R)-7,8-Dihydroxy-6-methoxymethyl-2,3-dimethyl-9-phenyl-7,8,9,10-tetrahydroimidazo[1,2-h][1,7]naphthyridine] | 182 to 183 °C (dec.) |
| COCCO[C@@H]1c2c(COC)cn3c(C)c(C)nc3c2N[C@H](c2ccccc2)[C@H]1O [Example 19, (7R,8R,9R)-8-Hydroxy-7-(2-methoxyethoxy)-6-methoxymethyl-2,3-dimethyl-9-phenyl-7,8,9,10-tetrahydroimidazo[1,2-h][1,7]naphthyridine] | 158 to 160 °C |
